Here are results for ten molecules from patent publication US9670142B2, “1,3-diaminocyclopentane carboxamide derivatives” (Merck Patent GmbH, priority 2013, dated 2017).

The structures appear in SMILES notation. Bounds are passed on as bounds.

The test has as its target human fatty acid synthase FASN (Homo sapiens (Human), UniProt P49327). The experiment in a line: Biochemical activity testing of human fatty acid synthase FASN (NADPH fluorescence intensity enzyme assay). The conditions noted are these: human recombinant full-length fatty acid synthase. The essentials: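 In-house Sf9-expressed full-length enzyme (3 μL of 40 nM) in 50 mM potassium phosphate pH 7.0 with glutathione, BSA and Tween-20, plus NADPH (2 μL of 200 μM), preincubated ≥15 min with compound (10 concentrations from 30 μM final, 1% DMSO). Acetyl-CoA/malonyl-CoA added; NADPH fluorescence (ex 340/em 460 nm) read before and after 30 min at room temperature, difference used for IC50.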

human fatty acid synthase FASN, sequence (P49327 whole entry): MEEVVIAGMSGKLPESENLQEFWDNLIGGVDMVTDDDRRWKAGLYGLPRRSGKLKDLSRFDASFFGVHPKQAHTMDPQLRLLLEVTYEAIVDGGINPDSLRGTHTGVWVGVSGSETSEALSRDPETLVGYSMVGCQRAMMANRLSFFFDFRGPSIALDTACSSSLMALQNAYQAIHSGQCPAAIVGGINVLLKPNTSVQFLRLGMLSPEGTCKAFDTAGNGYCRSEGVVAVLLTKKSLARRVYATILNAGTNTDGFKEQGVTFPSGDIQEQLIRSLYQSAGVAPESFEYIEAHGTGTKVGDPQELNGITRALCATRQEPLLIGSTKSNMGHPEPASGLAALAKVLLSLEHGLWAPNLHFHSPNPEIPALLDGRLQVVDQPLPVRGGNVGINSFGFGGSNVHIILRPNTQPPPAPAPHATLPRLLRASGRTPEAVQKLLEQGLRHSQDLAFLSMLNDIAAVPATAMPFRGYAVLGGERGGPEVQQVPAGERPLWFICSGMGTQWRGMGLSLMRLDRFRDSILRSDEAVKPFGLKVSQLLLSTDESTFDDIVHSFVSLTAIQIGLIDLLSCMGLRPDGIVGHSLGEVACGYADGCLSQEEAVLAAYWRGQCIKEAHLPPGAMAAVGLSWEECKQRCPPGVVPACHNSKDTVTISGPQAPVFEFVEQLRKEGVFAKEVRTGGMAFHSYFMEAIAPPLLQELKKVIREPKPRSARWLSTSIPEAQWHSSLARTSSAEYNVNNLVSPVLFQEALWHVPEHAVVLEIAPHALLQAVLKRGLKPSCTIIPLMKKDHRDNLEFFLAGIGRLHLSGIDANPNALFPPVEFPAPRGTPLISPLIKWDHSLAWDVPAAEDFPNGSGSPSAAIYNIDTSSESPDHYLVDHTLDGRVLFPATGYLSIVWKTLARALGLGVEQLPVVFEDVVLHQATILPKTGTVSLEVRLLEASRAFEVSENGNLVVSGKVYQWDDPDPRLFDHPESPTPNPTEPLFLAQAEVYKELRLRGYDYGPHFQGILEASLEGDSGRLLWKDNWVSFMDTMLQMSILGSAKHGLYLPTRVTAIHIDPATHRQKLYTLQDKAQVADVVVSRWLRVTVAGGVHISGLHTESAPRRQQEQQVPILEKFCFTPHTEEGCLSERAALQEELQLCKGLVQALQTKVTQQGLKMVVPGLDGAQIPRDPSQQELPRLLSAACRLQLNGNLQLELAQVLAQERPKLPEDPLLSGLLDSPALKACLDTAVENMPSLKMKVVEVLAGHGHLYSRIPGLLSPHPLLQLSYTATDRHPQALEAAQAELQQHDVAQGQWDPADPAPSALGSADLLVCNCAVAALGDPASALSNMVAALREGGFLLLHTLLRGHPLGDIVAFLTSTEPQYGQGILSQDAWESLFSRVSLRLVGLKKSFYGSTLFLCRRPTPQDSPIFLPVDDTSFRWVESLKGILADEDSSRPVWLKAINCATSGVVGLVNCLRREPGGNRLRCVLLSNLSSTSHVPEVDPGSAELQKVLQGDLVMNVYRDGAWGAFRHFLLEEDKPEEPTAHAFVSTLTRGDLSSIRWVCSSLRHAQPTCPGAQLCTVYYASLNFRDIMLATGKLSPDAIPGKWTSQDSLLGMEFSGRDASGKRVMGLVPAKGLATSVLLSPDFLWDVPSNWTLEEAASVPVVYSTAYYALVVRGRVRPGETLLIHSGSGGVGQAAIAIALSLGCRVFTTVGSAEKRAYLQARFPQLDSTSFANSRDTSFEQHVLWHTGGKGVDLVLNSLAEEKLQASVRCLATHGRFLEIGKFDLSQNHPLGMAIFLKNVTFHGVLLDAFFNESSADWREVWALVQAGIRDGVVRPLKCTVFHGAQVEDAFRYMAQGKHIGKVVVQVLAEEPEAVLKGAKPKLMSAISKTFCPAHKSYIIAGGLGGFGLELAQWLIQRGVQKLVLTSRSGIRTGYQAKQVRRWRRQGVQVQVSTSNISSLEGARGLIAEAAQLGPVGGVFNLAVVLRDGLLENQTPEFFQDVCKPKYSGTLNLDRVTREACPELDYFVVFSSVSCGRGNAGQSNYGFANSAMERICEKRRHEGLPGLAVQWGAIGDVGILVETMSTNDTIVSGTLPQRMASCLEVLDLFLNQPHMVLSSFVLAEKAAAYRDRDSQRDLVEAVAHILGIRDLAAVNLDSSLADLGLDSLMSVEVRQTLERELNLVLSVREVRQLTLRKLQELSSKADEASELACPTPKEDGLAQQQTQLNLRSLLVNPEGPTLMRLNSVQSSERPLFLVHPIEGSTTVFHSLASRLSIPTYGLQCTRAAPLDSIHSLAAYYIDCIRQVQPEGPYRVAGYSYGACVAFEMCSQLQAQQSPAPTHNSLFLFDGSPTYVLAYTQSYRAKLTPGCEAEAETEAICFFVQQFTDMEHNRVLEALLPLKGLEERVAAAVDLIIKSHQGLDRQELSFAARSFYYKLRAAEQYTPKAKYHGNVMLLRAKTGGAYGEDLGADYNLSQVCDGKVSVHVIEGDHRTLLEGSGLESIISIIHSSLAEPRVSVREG

Take `CCC(=O)N[C@H]1CC[C@@H](N(C)C(=O)c2ccc(-c3cc4cn[nH]c4cc3C)cc2)C1` [Compound A102, N-methyl-4-(6-methyl-1H-indazol-5-yl)-N-((1R,3S)-3-propionylamino-cyclopentyl)-benzamide]: the IC50 (as a rule, the point on the concentration scale where inhibition reaches its midpoint) is under 0.3 µM. The same measure for `CN(C(=O)c1ccc(-c2nc3ccccc3o2)cc1)[C@@H]1CC[C@H](NC(=O)Cc2ccccc2)C1` [Compound A23, 4-benzoxazol-2-yl-N-methyl-N-((1R,3S)-3-phenylacetylamino-cyclopentyl)-benzamide]: under 0.3 µM; for `CCC(=O)N[C@H]1CC[C@@H](N(C)C(=O)c2ccc(-c3ccc4cc[nH]c4c3)cc2)C1` [Compound A67, 4-(1H-indol-6-yl)-N-methyl-N-((1R,3S)-3-propionylamino-cyclopentyl)-benzamide]: under 0.3 µM; for `CCC(=O)N[C@H]1CC[C@@H](N(C)C(=O)c2ccc(-c3cc(F)c4[nH]cc(C(N)=O)c4c3)c(F)c2)C1` [Compound A172, 7-fluoro-5-{2-fluoro-4-[methyl-((1R,3S)-3-propionylamino-cyclopentyl)-carbamoyl]-phenyl}-1H-indole-3-carboxylic acid amide]: 0.3 to 3 µM. Take `CCC(=O)N[C@H]1CC[C@@H](N(C)C(=O)c2ccc(-c3nc4ccccc4o3)cc2)C1` [Compound A1, 4-benzoxazol-2-yl-N-methyl-N-((1R,3S)-3-propionylamino-cyclopentyl)-benzamide]: the IC50 is under 0.3 µM. The same measure for `CCC(=O)N[C@H]1CC[C@@H](N(C)C(=O)c2ccc(-c3ccc4[nH]ccc4c3F)c(F)c2)C1` [Compound A151, 3-fluoro-4-(4-fluoro-1H-indol-5-yl)-N-methyl-N-((1R,3S)-3-propionylamino-cyclopentyl)-benzamide]: under 0.3 µM; for `CCC(=O)N[C@H]1CC[C@@H](N(C)C(=O)c2ccc(-c3nc4ccccc4s3)cc2)C1` [Compound A6, 4-benzothiazol-2-yl-N-methyl-N-((1R,3S)-3-propionylamino-cyclopentyl)-benzamide]: under 0.3 µM; for `CCC(=O)N[C@H]1CC[C@@H](N(C)C(=O)c2cnc(-c3ccc4[nH]ccc4c3)c(F)c2)C1` [Compound A140, 5-fluoro-6-(1H-indol-5-yl)-N-methyl-N-((1R,3S)-3-propionylamino-cyclopentyl)-nicotinamide]: under 0.3 µM.

Consider `CO[C@@H](C)C(=O)N[C@H]1CC[C@@H](N(C)C(=O)c2ccc(-c3nc4ccccc4o3)cc2)C1` [Compound A33, 4-benzoxazol-2-yl-N-[(1R,3S)-3-((S)-2-methoxy-propionylamino)-cyclopentyl]-N-methyl-benzamide], for which the IC50 is under 0.3 µM. The same measure for `CCC(=O)N[C@H]1CC[C@@H](N(C)C(=O)c2ccc(-c3ccc4[nH]cc(C(N)=O)c4c3)c(F)c2)C1` [Compound A160, 5-{2-fluoro-4-[methyl-((1R,3S)-3-propionylamino-cyclopentyl)-carbamoyl]-phenyl}-1H-indole-3-carboxylic acid amide]: under 0.3 µM.
